The source made the active and inactive calls. No cut-off for these calls is given here.
Legend:
[1] = molecular target: T1, Nuclear factor erythroid 2-related factor 2 (Homo sapiens) (UniProt Q16236); test: Activation of NRF2 in human HaCaT cells expressing rat NQO1 assessed as induction of NQO1 expression at 50 nM to 5 uM incubated for 24 hrs by ARE-driven luciferase reporter gene assay; assay type: cell-based
T1 sequence (whole entry): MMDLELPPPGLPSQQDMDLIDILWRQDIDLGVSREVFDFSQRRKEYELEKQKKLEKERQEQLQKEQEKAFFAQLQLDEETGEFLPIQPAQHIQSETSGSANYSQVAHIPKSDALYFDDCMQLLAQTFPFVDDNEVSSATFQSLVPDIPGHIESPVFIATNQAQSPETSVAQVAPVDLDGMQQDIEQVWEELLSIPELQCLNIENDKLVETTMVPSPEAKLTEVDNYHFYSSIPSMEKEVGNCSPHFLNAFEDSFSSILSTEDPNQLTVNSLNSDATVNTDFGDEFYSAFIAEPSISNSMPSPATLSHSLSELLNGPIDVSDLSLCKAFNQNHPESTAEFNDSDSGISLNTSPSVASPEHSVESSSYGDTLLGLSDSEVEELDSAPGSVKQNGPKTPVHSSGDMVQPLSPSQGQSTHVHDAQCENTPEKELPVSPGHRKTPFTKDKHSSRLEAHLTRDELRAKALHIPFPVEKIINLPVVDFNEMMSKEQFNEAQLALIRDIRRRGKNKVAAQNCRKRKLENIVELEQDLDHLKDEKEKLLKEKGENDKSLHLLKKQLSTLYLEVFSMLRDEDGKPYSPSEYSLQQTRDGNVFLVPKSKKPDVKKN

A549 [2] = test: Cytotoxicity against human A549 cells assessed as reduction in cell viability after 48 hrs by MTT assay; assay type: functional, cell-based; settings: A549, 48 h
MRC5 [3] = test: Cytotoxicity against human MRC5 cells assessed as reduction in cell viability after 48 hrs by MTT assay; assay type: cell-based; settings: MRC5, 48 h
HaCaT [4] = test: Toxicity in human HaCaT cells expressing rat NQO1 assessed as reduction in cell viability at 500 uM incubated for 24 hrs by MTT assay; assay type: cell-based
HaCaT [5] = test: Toxicity in human HaCaT cells expressing rat NQO1 assessed as reduction in cell viability at 50 uM incubated for 24 hrs by MTT assay; assay type: cell-based
A549 [6] = test: Cytotoxicity against human A549 cells assessed as reduction in cell viability at 10 uM after 48 hrs by inverted microscopy; assay type: functional
MRC5 [7] = test: Cytotoxicity against human MRC5 cells assessed as reduction in cell viability at 10 uM after 48 hrs by inverted microscopy; assay type: cell-based; settings: mrc5, 48 h
[8] = Cytotoxicity against human MRC5 cells assessed as cell viability at 10 uM after 48 hrs by inverted microscopy; assay type: cell-based; settings: read-out: Activity

| SMILES | Activity [1] | IC50 (A549 [2]) [µM] | IC50 (MRC5 [3]) [µM] | Activity (HaCaT [4]) | Activity (HaCaT [5]) | growth inhibition (GI) (A549 [6]) | growth inhibition (GI) (MRC5 [7]) | viability at 48 h, 10 µM [8] [%] |
| --- | --- | --- | --- | --- | --- | --- | --- | --- |
| C[S@@+]([O-])CCCCCCN=C=S | Active | – | – | – | – | – | – | – |
| C[S@@](=O)CCCCN=C=S [SULFORAPHANE] | Active | 19.6 | 46.6 | Toxic | Toxic | – | – | – |
| CCCC[S@@+]([O-])CCCCN=C=S | Active | 9.77 | 17.4 | Toxic | Toxic | Active | Non-toxic | 90 |
| CC(O)C(=O)O (configuration not stated) [LACTIC ACID] | – | 26.6 | 23.9 | – | – | – | – | – |
| C[S@@+]([O-])CCCCCN=C=S | Active | 9.62 | 18.5 | Toxic | Toxic | – | – | – |
| CC[S@@+]([O-])CCCCN=C=S (racemic) | Active | 19.8 | 40.8 | Toxic | Toxic | – | – | – |
| C[S@+]([O-])CCCCCCN=C=S | Active | – | – | – | – | – | – | – |
| C[S@+]([O-])CCCCCN=C=S | Active | 12 | 20.2 | Toxic | Toxic | – | – | – |

From ChEMBL document CHEMBL3352446, “Sulforaphane homologues: Enantiodivergent synthesis of both enantiomers, activation of the Nrf2 transcription factor and selective cytotoxic activity” (Eur J Med Chem, 2014)
